Drawing on patent US20240034729A9, “HETEROCYCLIC COMPOUND, INTERMEDIATE, PREPARATION METHOD THEREFOR AND APPLICATION THEREOF” (WUHAN LL SCIENCE AND TECHNOLOGY DEVELOPMENT CO., LTD., priority 2018, published 2024), this text covers IC50 for 45 compounds.

In the test the target is hP2X3 (human purinergic P2X receptor subtype 3) (Homo sapiens (Human), UniProt P56373). Nature of the test: FLIPR calcium assay, hP2X3 expressed in HEK293 cells. Particulars: read-out: P2X3 IC50. Format: cell-based.
Where [1] appears, read: HEK293 cells expressing hP2X3, agonist BZ-ATP 2.5 μM, class symbols.

Structures are written as SMILES. pIC50: −log10 of the molar value. Like-named read-outs stand apart in the source and are kept apart here.

Chain of hP2X3 (human purinergic P2X receptor subtype 3) (P56373 whole entry): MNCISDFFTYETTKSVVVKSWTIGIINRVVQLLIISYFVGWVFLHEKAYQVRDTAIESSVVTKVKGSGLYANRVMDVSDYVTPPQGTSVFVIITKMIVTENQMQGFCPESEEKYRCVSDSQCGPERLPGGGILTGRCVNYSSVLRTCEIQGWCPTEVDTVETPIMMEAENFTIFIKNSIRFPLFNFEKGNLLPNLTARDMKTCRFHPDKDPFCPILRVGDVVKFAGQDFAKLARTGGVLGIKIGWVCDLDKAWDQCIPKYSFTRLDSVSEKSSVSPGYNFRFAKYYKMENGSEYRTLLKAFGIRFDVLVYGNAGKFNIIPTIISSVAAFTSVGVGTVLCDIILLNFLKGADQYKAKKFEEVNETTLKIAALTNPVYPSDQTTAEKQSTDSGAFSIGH

In general, pIC50 refers to the IC50 on a negative log10 scale, so that one unit is a factor of ten. For `COC(=O)N1CCO[C@@H](Cc2c(-c3c(F)cc(N4CCN(C)CC4=O)cc3F)nc3cc(C)ccn23)C1` [Compound 45, methyl (S)-2-((2-(2,6-difluoro-4-(4-methyl-2-oxopiperazin-1-yl)phenyl)-7-methylimidazo[1,2-a]pyridin-3-yl)methyl) morpholine-4-carboxylate], under setting [1], the pIC50 was 5.30 to 6.70.

Regarding `CNC(=O)c1cc(F)c(-c2nc3cc(C)ccn3c2C[C@H]2CN(C(=O)OC)CCN2)c(F)c1` [Compound 46], the pIC50 under setting [1] was 5.30 to 6.70.

Take `CNC(=O)c1cc(F)c(-c2nc3cc(C)ccn3c2CN2CCOCC2=O)c(F)c1` [Compound 47, 3,5-difluoro-N-methyl-4-(7-methyl-3-((3-oxo-4-morpholinyl)methyl)imidazo[1,2-a]pyridin-2-yl)benzamide]: under setting [1], the pIC50 was 5.30 to 6.70.

Take `CNC(=O)c1cc(F)c(-c2nc3cc(C)ccn3c2CN2CCNCC2=O)c(F)c1` [Compound 48, (S)-2-((2-(2,6-difluoro-4-(methylcarbamoyl)phenyl)-7-methylimidazo[1,2-a]pyridin-3-yl)methyl)-2-carbonyl-piperazine]: the pIC50 was 6.70 to 7.30.

For the compound `COC(=O)c1cc(F)c(-c2nc3cc(C)ccn3c2C[C@H]2CN(C(=O)OC)CCO2)c(F)c1` [Compound 49, methyl (S)-2-((2-(2,6-difluoro-4-carbomethoxyphenyl)-7-methylimidazo[1,2-a]pyridin-3-yl)-methyl)morpholine-4-carboxylate], the pIC50 was over 8.00.

As for `CCOC(=O)c1cn(-c2cc(F)c(-c3nc4cc(C)ccn4c3C[C@H]3CN(C(=O)OC)CCO3)c(F)c2)cn1` [Compound 51, methyl (S)-2-((2-(4-(4-(carbethoxy<ethoxycarbonyl>)-1H-imidazol-1-yl)-2,6-difluorophenyl)-7-methylimidazo[1,2-a]pyridin-3-yl)methyl)morpholine-4-carboxylate], the pIC50 is 6.70 to 7.30.

Take `CNC(=O)c1cc(F)c(-c2oc3cc(C)ncc3c2C[C@H]2CN(C(=O)OC)CCO2)c(F)c1` [Compound 55, methyl (S)-2-((2-(2,6-difluoro-4-(methylcarbamoyl)phenyl)-6-methylfurano[3,2-c]pyridin-3-yl)methyl)morpholine-4-carboxylate]: the pIC50 is over 8.00.

`CNC(=O)c1cc(F)c(-c2oc3nc(C)ccc3c2C[C@H]2CN(C(=O)OC)CCO2)c(F)c1` [Compound 56, methyl (S)-2-((2-(2,6-difluoro-4-(methylcarbamoyl)phenyl)-6-methylfurano[2,3-b]pyridin-3-yl)methyl)morpholine-4-carboxylate]: the pIC50 was over 8.00.

`CNC(=O)c1cc(F)c(-c2nn3cc(C)ccc3c2C[C@H]2CN(C(=O)OC)CCO2)c(F)c1` [Compound 57]: the pIC50 was over 8.00.

Consider `CNC(=O)c1cc(F)c(-c2nc3n(c2C[C@H]2CN(C(=O)OC)CCO2)CCN(C)C3)c(F)c1` [Compound 62], for which the pIC50 under setting [1] is 5.30 to 6.70.

As for `CNC(=O)Cc1cc(F)c(-c2nc3cc(C)ccn3c2C[C@H]2CN(C(=O)OC)CCO2)c(F)c1` [Compound 64, methyl (S)-2-((2-(4-(2-(methylamino)-2-oxoethyl)-2,6-difluorophenyl)-7-methylimidazo[1,2-a]pyridin-3-yl)methyl) morpholine-4-carboxylate], the pIC50 was 6.70 to 7.30.

Regarding `COC(=O)N1CCO[C@@H](Cc2c(-c3c(F)cc(C4(C(N)=O)CC4)cc3F)nc3cc(C)ccn23)C1` [Compound 65], the negative logarithm of the IC50 (pIC50) was 6.70 to 7.30.

`CNC(=O)C1(c2cc(F)c(-c3nc4cc(C)ccn4c3C[C@H]3CN(C(=O)OC)CCO3)c(F)c2)CC1` [Compound 66]: the pIC50 is 6.70 to 7.30.

In the case of `CNC1(c2cc(F)c(-c3nc4cc(C)ccn4c3C[C@H]3CN(C(=O)OC)CCO3)c(F)c2)CC1` [Compound 67, methyl (S)-2-((2-(2,6-difluoro-4-(1-(methylamino)cyclopropyl)phenyl)-7-methylimidazo[1,2-a]pyridin-3-yl)methyl) morpholine-4-carboxylate], the negative logarithm of the IC50 (pIC50) is 7.30 to 8.00.

In the case of `CNC(c1cc(F)c(-c2nc3cc(C)ccn3c2C[C@H]2CN(C(=O)OC)CCO2)c(F)c1)C(F)(F)F` (stereo partly drawn) [Compound 68, methyl (S)-2-((2-(2,6-difluoro-4-(2,2,2-trifluoro-1-(methylamino)ethyl)phenyl)-7-methylimidazo[1,2-a]pyridin-3-yl)methyl)morpholine-4-carboxylate], the pIC50 is 7.30 to 8.00.

Turning to `CNC1(c2cc(F)c(-c3nc4cc(C)ccn4c3C[C@H]3CN(C(=O)OC)CCO3)c(F)c2)COC1` [Compound 69, methyl (S)-2-((2-(2,6-difluoro-4-(3-(methylamino)oxetan-3-yl)phenyl)-7-methylimidazo[1,2-a]pyridin-3-yl)methyl) morpholine-4-carboxylate], the negative logarithm of the IC50 (pIC50) is 7.30 to 8.00.

For `COC(=O)N1CCO[C@@H](Cc2c(-c3c(F)cc(C4(N)COC4)cc3F)nc3cc(C)ccn23)C1` [Compound 70], the pIC50 is 7.30 to 8.00.

As for `COC(=O)N1CCO[C@@H](Cc2c(-c3c(F)cc(Nc4ccc(Cl)o4)cc3F)nc3cc(C)ccn23)C1` [Compound 72], the negative-log IC50 (pIC50) was 6.70 to 7.30.

Turning to `COC(=O)N1CCO[C@@H](Cc2c(-c3c(F)cc(Nc4ccc(F)o4)cc3F)nc3cc(C)ccn23)C1` [Compound 73], the negative-log IC50 (pIC50) is 6.70 to 7.30.

Take `COC(=O)N1CCO[C@@H](Cc2c(-c3c(F)cc(Nc4ccco4)cc3F)nc3cc(C)ccn23)C1` [Compound 74]: the negative-log IC50 (pIC50) was 6.70 to 7.30.

Regarding `COC(=O)N1CCO[C@@H](Cc2c(-c3c(F)cc(NCCCC(N)=O)cc3F)nc3cc(C)ccn23)C1` [Compound 77], the negative-log IC50 (pIC50) was over 8.00.

In the case of `COC(=O)N1CCO[C@@H](Cc2c(-c3c(F)cc(NC4CC(=O)C4)cc3F)nc3cc(C)ccn23)C1` [Compound 78], the negative-log IC50 (pIC50) was 7.30 to 8.00.

With `COC(=O)N1CCO[C@@H](Cc2c(-c3c(F)cc(NC4CCC(=O)CC4)cc3F)nc3cc(C)ccn23)C1` [Compound 80, methyl (S)-2-((2-(2,6-difluoro-4-((4-carbonylcyclohexyl)amino)phenyl)-7-methylimidazo[1,2-a]pyridin-3-yl)methyl) morpholine-4-carboxylate], the pIC50 is 7.30 to 8.00.

With `COC(=O)N1CCO[C@@H](Cc2c(-c3c(F)cc(NC(=O)C4CCC(C(=O)O)CC4)cc3F)nc3cc(C)ccn23)C1` (stereo partly drawn) [Compound 82], the pIC50 is 7.30 to 8.00.

For the compound `COC(=O)N1CCO[C@@H](Cc2c(-c3c(F)cc(NC(=O)C4CCC(=O)CC4)cc3F)nc3cc(C)ccn23)C1` [Compound 83], the pIC50 was 6.70 to 7.30.

On to `COC(=O)N1CCO[C@@H](Cc2c(-c3c(F)cc(NC(=O)c4ccccc4)cc3F)nc3cc(C)ccn23)C1` [Compound 84], for which the pIC50 is 6.70 to 7.30.

`COC(=O)N1CCO[C@@H](Cc2c(-c3c(F)cc(NC(=O)c4ccc(C(=O)O)cc4)cc3F)nc3cc(C)ccn23)C1` [Compound 85, (S)-4-((3,5-difluoro-4-(3-((4-(carbomethoxy<methoxycarbonyl>)morpholin-2-yl)methyl)-7-methylimidazo[1,2-a]pyridin-2-yl)phenyl)carbamoyl)benzoic acid]: the pIC50 was 6.70 to 7.30.

Consider `COC(=O)N1CCO[C@@H](Cc2c(-c3c(F)cc(NC(=O)c4ccncc4)cc3F)nc3cc(C)ccn23)C1` [Compound 86], for which the pIC50 was 7.30 to 8.00.

Take `C=CC(=O)Nc1cc(F)c(-c2nc3cc(C)ccn3c2C[C@H]2CN(C(=O)OC)CCO2)c(F)c1` [Compound 87]: the pIC50 was 6.70 to 7.30.

Regarding `COC(=O)N1CCO[C@@H](Cc2c(-c3c(F)cc(NC(=O)C#CC(=O)O)cc3F)nc3cc(C)ccn23)C1` [Compound 88], the pIC50 is 7.30 to 8.00.

Turning to `COC(=O)N1CCO[C@@H](Cc2c(-c3c(F)cc(NC(=O)CC(C)(C)O)cc3F)nc3cc(C)ccn23)C1` [Compound 90], the negative-log IC50 (pIC50) is 7.30 to 8.00.

`COC(=O)N1CCO[C@@H](Cc2c(-c3c(F)cc(NC(=O)CC(C)(C)C(=O)O)cc3F)nc3cc(C)ccn23)C1` [Compound 91]: the pIC50 was over 8.00.

On to `COC(=O)N1CCO[C@@H](Cc2c(-c3c(F)cc(NC(=O)CC(C)C(=O)O)cc3F)nc3cc(C)ccn23)C1` (stereo partly drawn) [Compound 92], for which the pIC50 was 7.30 to 8.00.

Consider `COC(=O)N1CCO[C@@H](Cc2c(-c3c(F)cc(NC(=O)CCC(C)(C)O)cc3F)nc3cc(C)ccn23)C1` [Compound 93], for which the negative logarithm of the IC50 (pIC50) was 7.30 to 8.00.

In the case of `CNC(=O)c1cc(F)c(-c2nc3cc(C)cnc3n2C[C@H]2CN(C(=O)OC)CCO2)c(F)c1` [Compound 94, methyl (S)-2-((2-(2,6-difluoro-4-(methylcarbamoyl)phenyl)-6-methyl-3H-imidazo[4,5-b]pyridin-3-yl)methyl)morpholine-4-carboxylate], the pIC50 was 6.70 to 7.30.

With `COC(=O)N1CCO[C@@H](Cc2c(-c3c(F)cc(NC(=O)CC4(C(=O)O)CC4)cc3F)nc3cc(C)ccn23)C1` [Compound 95], the pIC50 was 7.30 to 8.00.

In the case of `COC(=O)N1CCO[C@@H](Cc2c(-c3c(F)cc(NC(=O)CC4(C#N)CC4)cc3F)nc3cc(C)ccn23)C1` [Compound 96], the negative logarithm of the IC50 (pIC50) was 7.30 to 8.00.

Turning to `COC(=O)N1CCO[C@@H](Cc2c(-c3c(F)cc(-n4cc[nH]c4=O)cc3F)nc3cc(C)ccn23)C1` [Compound 98], the pIC50 was 7.30 to 8.00.

For `COC(=O)N1CCO[C@@H](Cc2c(-c3c(F)cc(-n4ccoc4=O)cc3F)nc3cc(C)ccn23)C1` [Compound 99], the pIC50 is 7.30 to 8.00.

Take `COC(=O)N1CCO[C@@H](Cc2c(-c3c(F)cc(N4C=CCC4=O)cc3F)nc3cc(C)ccn23)C1` [Compound 100]: the pIC50 was 7.30 to 8.00.

Regarding `COC(=O)N1CCO[C@@H](Cc2c(-c3c(F)cc(N4CCCC4=O)cc3F)nc3cc(C)ccn23)C1` [Compound 101], the pIC50 was 7.30 to 8.00.

`COC(=O)N1CCO[C@@H](Cc2c(-c3c(F)cc(-c4ccn(C(F)F)n4)cc3F)nc3cc(C)ccn23)C1` [Compound 102]: the pIC50 was over 8.00.

As for `COC(=O)N1CCO[C@@H](Cc2c(-c3c(F)cc(-c4cc[nH]n4)cc3F)nc3cc(F)ccn23)C1` [Compound 103], the negative logarithm of the IC50 (pIC50) was 6.70 to 7.30.

Take `COC(=O)N1CCO[C@@H](Cc2c(-c3c(F)cc(-c4nc(S(N)(=O)=O)c[nH]4)cc3F)nc3cc(C)ccn23)C1` [Compound 105]: the pIC50 was over 8.00.

As for `COC(=O)N1CCO[C@@H](Cc2c(-c3c(F)cc(-c4nc(C#N)c[nH]4)cc3F)nc3cc(F)ccn23)C1` [Compound 106], the negative logarithm of the IC50 (pIC50) was 7.30 to 8.00.
